Laboratory results as given in US12024707B2, “Methods and compositions for modulating lncRNAs and methods of treatment based on lncRNA expression” (Washington University, priority 2020, dated 2024).
Values joined by “and” are separate entries in the source; they are usually repeats but may differ in a detail not shown here. Equal values may be shown once. Where a name gives a salt, the structure may show the parent alone. Read-outs that look alike come from different tables or passages of the source.

System: HT29 RAMS11 overexpressing cells
Assay: High-throughput viability assay (resazurin), 119 FDA-approved anticancer drugs, RAMS11 overexpressing cells (Clone1, Clone2)
Conditions: for increase in cellular viability compared with empty vector control cell line: HT29 RAMS11 overexpressing vs empty vector cells, treated 72 h
[1] = OE1 (RAMS11 overexpression clone 1), 0.1 uM drug, 72 h, vs empty vector control
[2] = OE1 (RAMS11 overexpression clone 1), 1 uM drug, 72 h, vs empty vector control
[3] = OE1 (RAMS11 overexpression clone 1), 10 uM drug, 72 h, vs empty vector control
[4] = OE2 (RAMS11 overexpression clone 2), 0.1 uM drug, 72 h, vs empty vector control
[5] = OE2 (RAMS11 overexpression clone 2), 1 uM drug, 72 h, vs empty vector control
[6] = OE2 (RAMS11 overexpression clone 2), 10 uM drug, 72 h, vs empty vector control

Compound | Viability Fold Change [1] | Viability Fold Change [2] | Viability Fold Change [3] | Viability Fold Change [4] | Viability Fold Change [5] | Viability Fold Change [6] | increase in drug resistance in HT29 RAMS11 overexpressing cells (topoisomerase inhibitors, vs empty vector cells) | Viability Fold Change | increase in cellular viability compared with empty vector control cell line
CC[C@H](Nc1ncnc2[nH]cnc12)c1nc2cccc(F)c2c(=O)n1-c1ccccc1 [Idelalisib] | 0.9092 | 0.8875 | 0.9111 | 0.9773 | 0.8852 | 0.8746 |  |  | 
CC[C@@]1(O)C(=O)OCc2c1cc1n(c2=O)Cc2cc3c(CN(C)C)c(O)ccc3nc2-1 [topotecan hydrochloride, reference compound] |  |  |  |  |  |  | at least a two-fold increase in drug resistance |  | 
Nc1nc(F)nc2c1ncn2[C@@H]1O[C@H](CO)[C@@H](O)[C@@H]1O [Fludarabine] | 0.869 | 0.9921 | 1.056 | 0.973 | 1.069 | 1.073 |  |  | 
CC1=C(/C=C/C(C)=C/C=C/C(C)=C/C(=O)O)C(C)(C)CCC1 [Tretinoin] | 1.161 | 1.226 | 1.142 | 1.068 | 1.373 | 1.336 |  |  | 
COc1cc([C@@H]2c3cc4c(cc3[C@@H](O[C@@H]3O[C@@H]5CO[C@@H](c6cccs6)O[C@H]5[C@H](O)[C@H]3O)[C@H]3COC(=O)[C@H]23)OCO4)cc(OC)c1O [Teniopside] | 1.038 | 1.327 | 2.288 | 0.9657 | 1.349 | 2.261 |  |  | 
COc1cc2nccc(Oc3ccc(NC(=O)C4(C(=O)Nc5ccc(F)cc5)CC4)cc3)c2cc1OC [Cabozantinib] | 0.9713 | 1.012 | 0.995 | 0.9575 | 1.037 | 0.8731 |  |  | 
Oc1ncc(N(CCCl)CCCl)c(O)n1 [Uracil mustard] |  |  |  |  |  |  |  | 0.8306 and 1.02 and 0.9705 and 0.9647 and 1.048 and 0.932 | 
CNC(=O)c1ccc(N2C(=S)N(c3ccc(C#N)c(C(F)(F)F)c3)C(=O)C2(C)C)cc1F [Enzalutamide] | 1.043 | 1.081 | 1.088 | 1.022 | 1.152 | 1.1 |  |  | 
O=C(O)CCCc1ccc(N(CCCl)CCCl)cc1 [Chlorambucil] | 0.9531 | 1.164 | 1.064 | 0.9859 | 1.144 | 0.9173 |  |  | 
O=C(/C=C/c1cccc(S(=O)(=O)Nc2ccccc2)c1)NO [Belinostat] | 0.9138 | 1.209 | 1.035 | 1.073 | 1.192 | 1.006 |  |  | 
O=C1c2c(O)ccc(O)c2C(=O)c2c(NCCNCCO)ccc(NCCNCCO)c21 [Mitoxantrone] | 1.145 | 1.451 | 1.375 | 1.105 | 1.432 | 1.508 |  |  | 
C#CCC(Cc1cnc2nc(N)nc(N)c2n1)c1ccc(C(=O)N[C@@H](CCC(=O)O)C(=O)O)cc1 (some centres unmarked) [Pralatrexate] | 0.7405 | 0.9216 | 1.034 | 0.8579 | 0.9781 | 1.119 |  |  | 
Nc1ccn([C@@H]2O[C@H](CO)[C@@H](O)C2(F)F)c(=O)n1 [gemcitabine, reference compound] |  | 3.429 | 2.39 | 1.507 | 3.028 | 2.499 |  |  | greatest resistance
C1CN1c1nc(N2CC2)nc(N2CC2)n1 [Triethylenemelamine] |  |  |  |  |  |  |  | 1.287 and 1.238 and 0.9974 and 1.295 and 1.284 and 1.013 | 
C[C@]12CC[C@@H]3c4ccc(O)cc4C[C@@H](CCCCCCCCC[S+]([O-])CCCC(F)(F)C(F)(F)F)[C@H]3[C@@H]1CC[C@@H]2O (some centres unmarked) [Fulvestrant] | 1.048 | 1.037 | 1.135 | 1.088 | 1.089 | 1.036 |  |  | 
C[C@@H](CN1CC(=O)NC(=O)C1)N1CC(=O)NC(=O)C1 [Dexrazoxane] | 0.9553 | 0.9814 | 0.8688 | 0.9411 | 1.049 | 1.119 |  |  | 
O=C(c1cc(Cc2n[nH]c(=O)c3ccccc23)ccc1F)N1CCN(C(=O)C2CC2)CC1 [Olaparib] | 0.8162 | 0.9061 | 1 | 0.9035 | 0.952 | 0.9733 |  |  | 
CC(=O)O[C@H]1C(=O)[C@@]2(C)[C@H]([C@H](OC(=O)c3ccccc3)[C@]3(O)C[C@H](OC(=O)[C@H](O)[C@@H](NC(=O)c4ccccc4)c4ccccc4)C(C)=C1C3(C)C)[C@]1(OC(C)=O)CO[C@@H]1C[C@@H]2O [Paclitaxel] | 2.775 | 3.5 | 3.241 | 2.662 | 3.065 | 3.061 |  |  | 
C/C(=C\c1csc(C)n1)[C@@H]1C[C@@H]2O[C@]2(C)CCC[C@H](C)[C@H](O)[C@@H](C)C(=O)C(C)(C)[C@@H](O)CC(=O)N1 [Ixabepilone] | 1.657 | 1.943 | 1.722 | 1.773 | 2.017 | 2.056 |  |  | 
O=C(CCCCCCC(=O)Nc1ccccc1)NO [Vorinostat] | 1.123 | 0.8948 | 1.604 | 1.068 | 1.159 | 1.356 |  |  | 
Cc1ccc(C(=O)Nc2ccc(CN3CCN(C)CC3)c(C(F)(F)F)c2)cc1C#Cc1cnc2cccnn12 [Ponatinib] |  |  |  |  |  |  |  | 1.056 and 0.9383 and 0.9645 and 1.199 and 0.9342 and 1.001 | 
Nc1ncn([C@@H]2O[C@H](CO)[C@@H](O)[C@H]2O)c(=O)n1 [Azacitidine] | 1.05 | 1.098 | 0.9367 | 1.089 | 1.054 | 0.9049 |  |  | 
CC[C@]1(O)C[C@@H]2CN(CCc3c([nH]c4ccccc34)[C@@](C(=O)OC)(c3cc4c(cc3OC)N(C)[C@H]3[C@@](O)(C(=O)OC)[C@H](OC(C)=O)[C@]5(CC)C=CCN6CC[C@]43[C@@H]65)C2)C1 [Vinblastine sulfate] | 3.198 | 3.402 | 3.682 | 2.825 | 3.412 | 3.815 |  |  | 
O=c1[nH]c(=O)n([C@H]2C[C@H](O)[C@@H](CO)O2)cc1F [floxuridine, reference compound] | 1.541 | 2.291 | 2.964 | 1.569 | 2.375 | 3.091 |  |  | greatest resistance
CS(=O)(=O)c1ccc(C(=O)Nc2ccc(Cl)c(-c3ccccn3)c2)c(Cl)c1 [Vismodegib] | 0.8416 | 0.9134 | 0.9421 | 0.9752 | 0.846 | 0.8976 |  |  | 
Nc1cccc2c1C(=O)N(C1CCC(=O)NC1=O)C2=O (centres unmarked) [Pomalidomide] | 0.9335 | 0.9509 | 0.9014 | 0.9444 | 0.9433 | 0.933 |  |  | 
Cc1ccc(Nc2nccc(N(C)c3ccc4c(C)n(C)nc4c3)n2)cc1S(N)(=O)=O [Pazopanib hydrochloride] | 0.8743 | 0.7793 | 0.8633 | 0.9409 | 0.9056 | 0.9152 |  |  | 
CN(C)C/C=C/C(=O)Nc1cc2c(Nc3ccc(F)c(Cl)c3)ncnc2cc1O[C@H]1CCOC1 [Afatinib] | 1.034 | 1.121 | 1.39 | 1.147 | 1.156 | 1.398 |  |  | 
CN(Cc1cnc2nc(N)nc(N)c2n1)c1ccc(C(=O)N[C@@H](CCC(=O)O)C(=O)O)cc1 [Methotrexate] | 0.9199 | 0.5578 | 1.197 | 0.9143 | 0.5752 | 1.137 |  |  | 
CO[C@@]12[C@H](COC(N)=O)C3=C(C(=O)C(C)=C(N)C3=O)N1C[C@@H]1N[C@@H]12 [Mitomycin] | 0.9668 | 1.547 | 2.416 | 1.006 | 1.624 | 2.004 |  |  | 
